According to the supplement of paper PMC10307832:

Experiments:
Assay in all cases: relative viability (nuclei count vs DMSO), 5 days (fraction); higher = more cells survive
MLN4924 + Luminespib = compound: NS(=O)(=O)OC[C@@H]1C[C@@H](n2ccc3c(N[C@H]4CCc5ccccc54)ncnc32)C[C@@H]1O [MLN4924] + CCNC(=O)c1noc(-c2cc(C(C)C)c(O)cc2O)c1-c1ccc(CN2CCOCC2)cc1 [Luminespib] (partner 0.01 µM)
Summary of the method: (§1)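 Lung cancer cell lines in 1536-well plates were dosed by pin tool the day after seeding, either with one drug alone or with a fixed anchor-drug dose plus five library-drug doses (not always all listed) in √10 steps. After 5 days, cells were fixed and their nuclei stained in one step (final 0.05% Triton X-100, 1% formaldehyde, 1 ug/ml Hoechst), then counted on 4× images. Relative viability is the nuclei count in treated wells divided by that in vehicle wells. Values are medians of duplicate plates.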

GSK126 + Foretinib = compound: CC[C@H](C)N1C=C(C2=C(C=C(C=C21)C3=CN=C(C=C3)N4CCNCC4)C(=O)NCC5=C(C=C(NC5=O)C)C)C [GSK126] + COc1cc2c(Oc3ccc(NC(=O)C4(C(=O)Nc5ccc(F)cc5)CC4)cc3F)ccnc2cc1OCCCN1CCOCC1 [Foretinib] (partner 0.25 µM)
Summary of the method: as §1

Carboplatin + Foretinib = compound: C1CC(C1)(C(=O)O)C(=O)O.[NH2-].[NH2-].[Pt+2] [Carboplatin] + COc1cc2c(Oc3ccc(NC(=O)C4(C(=O)Nc5ccc(F)cc5)CC4)cc3F)ccnc2cc1OCCCN1CCOCC1 [Foretinib] (partner 0.25 µM)
Summary of the method: as §1

MLN4924 + Bortezomib = compound: NS(=O)(=O)OC[C@@H]1C[C@@H](n2ccc3c(N[C@H]4CCc5ccccc54)ncnc32)C[C@@H]1O [MLN4924] + CC(C)C[C@H](NC(=O)[C@H](Cc1ccccc1)NC(=O)c1cnccn1)B(O)O [Bortezomib] (partner 0.002 µM)
Summary of the method: as §1

| Cell Line | relative viability (MLN4924 + Luminespib; first compound 0.04 µM) | relative viability (MLN4924 + Luminespib; first compound 0.1265 µM) | relative viability (MLN4924 + Luminespib; first compound 0.4 µM) | relative viability (MLN4924 + Luminespib; first compound 1.265 µM) | relative viability (MLN4924 + Luminespib; first compound 4 µM) | relative viability (GSK126 + Foretinib; first compound 0.08 µM) | relative viability (GSK126 + Foretinib; first compound 0.253 µM) | relative viability (GSK126 + Foretinib; first compound 0.8 µM) | relative viability (GSK126 + Foretinib; first compound 2.53 µM) | relative viability (GSK126 + Foretinib; first compound 8 µM) | relative viability (Carboplatin + Foretinib; first compound 0.08 µM) | relative viability (Carboplatin + Foretinib; first compound 0.253 µM) | relative viability (Carboplatin + Foretinib; first compound 0.8 µM) | relative viability (Carboplatin + Foretinib; first compound 2.53 µM) | relative viability (Carboplatin + Foretinib; first compound 8 µM) | relative viability (MLN4924 + Bortezomib; first compound 0.04 µM) | relative viability (MLN4924 + Bortezomib; first compound 0.1265 µM) | relative viability (MLN4924 + Bortezomib; first compound 0.4 µM) | relative viability (MLN4924 + Bortezomib; first compound 1.265 µM) | relative viability (MLN4924 + Bortezomib; first compound 4 µM) |
| --- | --- | --- | --- | --- | --- | --- | --- | --- | --- | --- | --- | --- | --- | --- | --- | --- | --- | --- | --- | --- |
| NCI-H1437 | 0.783 | 1.05 | 0.811 | 0.626 | 0.226 | 1.32 | 1.29 | 1.14 | 1.26 | 1.27 | 1.28 | 1.34 | 1.22 | 1.2 | 1.08 | 0.437 | 0.448 | 0.443 | 0.148 | 0.115 |
| EMC-BAC-2 | 0.906 | 0.495 | 0.303 | 0.276 | 0.325 | 1.07 | 0.964 | 0.706 | 0.98 | 1.03 | 1.07 | 1.06 | 1.02 | 1.03 | 0.898 | 0.96 | 0.842 | 0.274 | 0.162 | 0.155 |
| NCI-H520 | 0.25 | 0.2 | 0.227 | 0.213 | 0.205 | 1.04 | 0.693 | 0.719 | 0.78 | 0.909 | 0.905 | 0.815 | 0.795 | 0.831 | 0.575 | 0.424 | 0.272 | 0.341 | 0.131 | 0.141 |
| NCI-H1993 | 0.482 | 0.458 | 0.441 | 0.406 | 0.47 | 0.704 | 0.812 | 0.726 | 0.845 | 0.859 | 1.02 | 0.903 | 0.763 | 0.658 | 0.744 | 0.856 | 0.72 | 0.664 | 0.383 | 0.474 |
| HCC-827 | 0.68 | 0.588 | 0.548 | 0.159 | 0.163 | 1.02 | 1.02 | 1.01 | 1.03 | 1.09 | 1.05 | 1.03 | 1.01 | 0.995 | 0.912 | 1.05 | 0.966 | 0.791 | 0.474 | 0.375 |
| NCI-H2087 | 0.143 | 0.148 | 0.139 | 0.129 | 0.0909 | 1.2 | 0.999 | 1.05 | 1.28 | 1.13 | 1.18 | 1.14 | 1.15 | 0.957 | 0.757 | 0.746 | 0.717 | 0.468 | 0.151 | 0.154 |
| HARA | 0.683 | 0.618 | 0.291 | 0.0565 | 0.0527 | 1.14 | 0.93 | 0.874 | 0.877 | 0.839 | 1.05 | 1.03 | 0.83 | 0.798 | 0.744 | 0.918 | 0.516 | 0.218 | 0.101 | 0.0858 |
| NCI-H2126 | 0.898 | 0.843 | 0.609 | 0.472 | 0.309 | 1.19 | 0.847 | 1.21 | 1.28 | 1.25 | 1.31 | 1.14 | 1.04 | 1.25 | 1.04 | 1.17 | 1.16 | 0.907 | 0.392 | 0.348 |
| LCLC-103H | 0.947 | 0.92 | 0.724 | 0.217 | 0.166 | 0.86 | 0.744 | 0.738 | 0.926 | 0.814 | 0.752 | 0.83 | 0.806 | 0.703 | 0.632 | 1.04 | 1.16 | 0.955 | 0.346 | 0.301 |
| SK-LU-1 | 0.18 | 0.228 | 0.215 | 0.186 | 0.147 | 0.899 | 0.788 | 0.795 | 0.973 | 0.964 | 0.867 | 0.878 | 0.815 | 0.749 | 0.543 | 0.856 | 0.866 | 0.293 | 0.187 | 0.28 |
| EKVX | 0.943 | 0.756 | 0.682 | 0.257 | 0.166 | 0.755 | 0.881 | 0.782 | 0.876 | 0.903 | 0.903 | 0.893 | – | 0.749 | 0.747 | 0.806 | 0.711 | 0.475 | 0.236 | 0.135 |
| HCC-366 | – | – | – | – | – | 1.02 | 0.974 | 0.907 | 0.892 | 0.935 | 0.91 | 0.877 | 0.957 | 0.918 | 0.759 | 1.04 | 1.01 | 0.911 | 0.293 | 0.0253 |
| NCI-H1650 | 0.225 | 0.217 | 0.243 | 0.224 | 0.203 | 1.45 | 1 | 0.934 | 1.12 | 1.09 | 1.51 | 1.25 | 0.986 | 0.982 | 0.779 | 0.226 | 0.194 | 0.172 | 0.182 | 0.177 |
| NCI-H1703 | – | – | – | – | – | 0.354 | 0.357 | 0.311 | 0.373 | 0.381 | 0.446 | 0.397 | 0.34 | 0.403 | 0.37 | 0.117 | 0.0992 | 0.138 | 0.111 | 0.123 |
